# Measured values reported in article PMC8416643 (International Journal for Parasitology: Drugs and Drug …, 2021).
# “And” between values parts separate entries of the source, which are not always exact repeats. Equal entries are not always repeated. “Also recorded” adds a separate entry of the source. Where two headings read alike, the source gives them in different places.
# What was measured:
# T. gondii = tested on: T. gondii; parameters: method as in Doggett et al., 2020; Martynowicz et al., 2020; settings: persistently T. gondii infected mice, ref Doggett et al., 2020, Martynowicz et al.; cited from earlier work
# BALB/c mice [1] = settings: non-infected pregnant BALB/c, five times 10 mg/kg/day, pups from four dams; ref Anghel et al., 2018; cited from earlier work
# [2] = tested on: N. caninum transgenic strain expressing β-galactosidase; assay: In vitro proliferation of Nc-β-gal tachyzoites in HFF monolayers (β-galactosidase readout); assay type: cell-based, Neospora caninum; settings: compound added concomitantly to infection, 72 h
# Procedure: In vitro efficacy assessments of ELQ-316, ELQ-334, ELQ-422, BKI-1748, and respective drug combinations were done using Nc-β-gal ([Barna et al., 2013]; [Schorer et al., 2012]). Briefly, HFF monolayers were cultured in 96-well plates and were infected with 10^3 Nc-β-gal tachyzoites in the presence of ELQ-316, ELQ-334, ELQ-422, and BKI-1748, as well as the combinations of BKI-1748 with each of the three ELQs. All drugs and combinations were prepared as serial dilutions of 20000, 2000, 200, 20, 2, 0.2, 0.02, 0.002 and 0.0002 nM in cell culture medium, respectively. The stock solutions of ELQs as well as the medium were heated up to 37 °C before use. After three days of culture (37 °C/5% CO2) in the presence of compounds, wells were washed with 200 μl PBS, and 90 μl of PBS containing 0.05% Triton X-100 were added into each well. After addition of 10 μl 5 mM chlorophenol red-β-D-galactopyranoside dissolved in PBS, the absorption shift was measured at a wavelength of 570 nm at various time points on an Enspire multilabel reader (Perkin Elmer, Waltham). The half-maximal effective concentrations (EC50 values) were calculated after the logit-log transformation of relative growth and subsequent regression analysis by use of the corresponding software tool contained in the Excel software package (Microsoft, Seattle, WA).
# [3] = BKI-1748 and ELQ-316 concentration in BALB/c mouse plasma (LC-MS/MS); assay type: in vivo; settings: 1 h after final of 5 daily oral doses, ELQs 10 mg/kg, BKI-1748 20 mg/kg
# Procedure: Thirty-six BALB/c female and 18 male mice, six weeks of age were used. Female mice were oestrus synchronized during three days by the Whitten effect ([Whitten, 1957]), and mated for three nights by housing one male with two females. After mating, males were removed and female mice were randomly allocated to six experimental groups (six mice per group, two females per cage). […] The placebo group received 100 μl corn oil for five consecutive days. […] Live and stillborn pups were counted, and dead pups removed. Data on the number of female mice that became pregnant, litter size (number of delivered pups per dam), stillborn mice (dead pups from birth until day two post-partum), post-natal mortality (dead pups from day three post-partum to the end of the experiment), and clinical signs of treated mice were recorded. Dams and live pups were monitored for two weeks after birth to rule out possible adverse effects due to treatments. […]
# BKI-1748 and ELQ-316 concentrations in mouse plasma samples were determined as previously described ([Hulverson et al., 2019]; [Imhof et al., 2021]). Briefly, BKI-1748 and ELQ-316 were extracted from plasma using acetonitrile/0.1% formic acid with an internal standard and a standard curve was prepared for quantification. […]
# BALB/c mice [4] = assay: Assessment of potential interference in pregnancy in non-infected BALB/c mice; assay type: in vivo; settings: ELQs 10 mg/kg, BKI-1748 20 mg/kg; for Fertility: corn oil, gavage, days 9–13 of pregnancy, pregnant/total females
# Procedure: Thirty-six BALB/c female and 18 male mice, six weeks of age were used. […] After mating, males were removed and female mice were randomly allocated to six experimental groups (six mice per group, two females per cage). […] The placebo group received 100 μl corn oil for five consecutive days. […] During the experimental period, mice were examined daily and weighed several times during pregnancy to determine the number of pregnant animals and to detect possible abortions (which would result in rapid weight loss). On day 18 post-mating, pregnant females were separated into individual cages, where they gave birth on days 20–22 post mating. Live and stillborn pups were counted, and dead pups removed. Data on the number of female mice that became pregnant, litter size (number of delivered pups per dam), stillborn mice (dead pups from birth until day two post-partum), post-natal mortality (dead pups from day three post-partum to the end of the experiment), and clinical signs of treated mice were recorded. Dams and live pups were monitored for two weeks after birth to rule out possible adverse effects due to treatments. At the end of the experiment, mice were euthanized in a euthanasia chamber using isoflurane and CO2.
# [5] = tested on: N. caninum NcSp-7 tachyzoites; settings: BKI-1748 20 mg/kg
# Procedure: Ninety BALB/c female mice and 45 male mice, six weeks of age were used in this experiment. Oestrus synchronization and mating was performed as described above. After mating, (day 0) female mice were randomly assigned to seven groups: ELQ-334 (n = 14), ELQ-422 (n = 14), BKI-1748 (n = 14), ELQ-334 + BKI-1748 (n = 14), ELQ-422 + BKI-1748 (n = 14), positive control (corn oil treatment and infection, n = 14), and negative control (corn oil treatment without infection, n = 6). NcSp-7 tachyzoites were transferred from HFF cells to BALB/c dermal fibroblasts and maintained at 37 °C and 5% CO2 three days prior to infection ([Imhof et al., 2021]). On day 7, tachyzoites were harvested and prepared for infection as previously described ([Arranz-Solís et al., 2015]). In brief, tachyzoite-infected fibroblasts were recovered from culture flasks when they were >90% of intracellular tachyzoites still located in parasitophorous vacuoles, and infected cells were repeatedly passed through a 25-gauge needle at 4 °C. […] A sublethal dose of 10^5 tachyzoites in 100 μl were administered to each mouse by subcutaneous injection. The negative control group was inoculated with 100 μl dermal fibroblasts. From two days post-infection (day 9), compounds were administered in 100 μl corn oil on days nine to 13 of pregnancy, calculated after the first day of mating, as follows: ELQ-334 was administered at 5 mg/kg, ELQ-422 at 7.5 mg/kg, and BKI-1748 was administered at 20 mg/kg. The combined treatment groups were: ELQ-334 at 5 mg/kg + BKI-1748 at 20 mg/kg, and ELQ-422 at 7.5 mg/kg + BKI-1748 at 20 mg/kg. The positive and negative controls received 100 μl corn oil for five consecutive days. On day 18, pregnant females were separated into individual cages, they gave birth on days 20–22, and were allowed to rear their pups for 28 days until day 48–50. Live and stillborn pups were counted, and dead pups were removed, and the non-pregnant mice were also monitored during the following 30 days until day 50. Dams and their offspring were evaluated for clinical signs of disease, and data on the number of dams, stillborn pups and those dying postnatally were monitored. All mice were euthanized four weeks post-partum as described above. Blood was collected by cardiac puncture, centrifuged, and serum was stored at −20 °C for subsequent analysis of IgG1 and IgG2a levels by ELISA. Brain was collected and stored at −20 °C prior to further processing.
# For the quantification of the brain parasite load in all the mice, a real-time PCR method designed for quantification of N. caninum DNA was employed ([Aguado-Martínez et al., 2019]; [Müller et al., 2002]). DNA extraction and purification were done with the NucleoSpin DNA RapidLyse Kit (Macherey-Nagel, Oensingen, Switzerland) employing the standard protocols. DNA concentrations in all samples were determined using the QuantiFluor double-stranded DNA (dsDNA) system (Promega, Madison, WI, USA) according to the manufacturer's instructions and adjusted to 5 ng/μl with sterile DNase-free water. Quantitative real-time PCR was performed using the Light Cycler (Roche, Basel, Switzerland), and parasite loads calculated with a standard curve of N. caninum DNA samples of 10, 100, and 1000 tachyzoites included in each run.
# Levels of IgG1 and IgG2a in N. caninum infected mice were assessed by ELISA as described previously ([Debache et al, 2008], [2009]). Briefly, 96-well plates were coated with 200 ng NcSp-7 soluble tachyzoite protein extract diluted in coating buffer (50 mM sodium bicarbonate; 50 mM sodium carbonate both dissolved in ultrapure water; pH 9.6) per well.
# [6] = tested on: N. caninum NcSp-7 tachyzoites; parameters: method as in Anghel et al., 2018; settings: ref Anghel et al., 2018, cited from earlier work
# [7] = parameters: method as in Doggett et al., 2020; settings: ref Doggett et al., 2020; cited from earlier work
compound,measurement,setting,value
CCOC(=O)Oc1c(-c2ccc(Oc3ccc(OC(F)(F)F)cc3)cc2)c(C)nc2cc(OC)c(F)cc12 [ELQ-334],Tissue cysts in the brain,T. gondii,dramatic reduction of tissue cyst in the brain
same,Neonatal mortality,BALB/c mice [1],one out of 27
same,EC50,[2],54.2 nM
same,Plasma concentration ELQ-316,[3]; non-pregnant mouse,11.16 µM and 15.81 µM and 13.24 µM
same,Plasma concentration ELQ-316,[3]; pregnant mouse,12.71 µM and 18.58 µM
same,Fertility,BALB/c mice [4],2/6
same,Fertility,BALB/c mice [4]; listed as ELQ-344,Two of six
same,Neonatal mortality,"BALB/c mice [4]; gavage days 9–13, pups born dead or died within 2 days post-partum",two out of 11 and 2/11
same,Postnatal mortality,"BALB/c mice [4]; gavage days 9–13, pups that died during days 3–14 post-partum",1/9
same,Pups per dam,BALB/c mice [4]; gavage days 9–13 of pregnancy,11/2
same,Pups: Litter size,"[5]; infected dams, ELQ-334 5 mg/kg, ELQ-422 7.5 mg/kg, days 9–13",33
same,Pups: N. caninum PCR positive,"[5]; infected dams, ELQ-334 5 mg/kg, ELQ-422 7.5 mg/kg, brains from surviving pups",2/29
same,Vertical transmission of N. caninum to the pups,"[5]; infected dams, ELQ-334 5 mg/kg, ELQ-422 7.5 mg/kg, positive control 100%",10.3%
same,Inhibition of vertical transmission / pup infection,"[5]; infected dams, ELQ-334 5 mg/kg/day",> 90%
same,Non-pregnant females: Clinical signs,"[5]; infected, ELQ-334 5 mg/kg, ELQ-422 7.5 mg/kg, days 9–13",0/8
same,Dams: Total no.,"[5]; infected, ELQ-334 5 mg/kg, ELQ-422 7.5 mg/kg, days 9–13, pregnant/total females",6/14
same,Reduction of vertical transmission,[6]; 10 mg/kg/day,50%
same,Cerebral parasite burden in non-pregnant mice compared to the placebo group,[6]; 10 mg/kg,not notably reduced
same,Neonatal mortality,"[6]; N. caninum infected pregnant mice, 10 mg/kg/day, pups from 10 dams",seven out of 44
COc1cc2[nH]c(C)c(-c3ccc(Oc4ccc(OC(F)(F)F)cc4)cc3)c(=O)c2cc1F [ELQ-316],EC50,[2],1.55 nM
same,Solubility,[7],low solubility; also recorded: poor solubility
